Structures are written as SMILES.

Common to all, as to type: in vivo
One assay has as its system NF-κB. The assay can be described thus: NF-κB-driven EGFP expression in colon (macroimaging, Western blot, confocal). Conditions: AS252424-treated vs vehicle-treated mice. Here is the method: Whole tissues were lysed in Laemmli buffer and 20 μg of protein was separated by SDS-PAGE, transferred to nitrocellulose membranes and protein detected using enhanced chemiluminescence reaction (ECL) as described previously. (Lippert et al., 2009). Primary antibodies used were phospho-p70S6K (T389) and p70S6K (Cell Signaling, Danvers, Mass., United States of America), EGFP (Sigma, St. Louis, Mo., United States of America), LC3 I/II (MBL) and Actin.
II10^−/−; NF-κB^EGFP mice were sacrificed; the colon was dissected and immediately imaged using a charge-coupled device camera in a light-tight imaging box with a dual-filtered light source and emission filters specific for EGFP (LT-99D2 Illumatools; Lightools Research, Encinitas, Calif., United States of America). For microimaging, colonic segments were cut open and fixed in 4% paraformaldehyde overnight at 4° C., and then permeabilized in 2% triton overnight at 4° C. The tissues were then immersed in FocusClear (CelExplorer labs) and then stained with DAPI. […]
A segment of the distal colon was lysed in 300 μl Laemmli buffer, homogenized and heated at 95° C. for 5 min. […] Targeted protein was detected using enhanced chemiluminescence reaction (ECL) as described previously (Muhlbauer et al., 2008). […] The density of Western blot bands was quantified using ImageJ and data were normalized to total AKT control. […]

Another assay relates to C. jejuni. Nature of the assay: Colonic crypt abscess count in C. jejuni infected mice. The note with it: AS252424-treated II10−/− mice vs vehicle. From the text:
All animal protocols were approved by the Institutional Animal Care and Use Committee of the University of North Carolina at Chapel Hill (Chapel Hill, N.C., United States of America). Germ-free 8-12 week-old II10^−/−; NF-κBEGFP (129/SvEv; C57BL/6 mixed background), II10^−/− and II10^−/−; Rag2^−/− mice (129/SvEv) were transferred from germ-free isolators and immediately gavaged with a single dose of 10^9 C. jejuni cfu/mouse (strain 81-176 (Korlath et al., 1985)) and sacrificed after up to 14 days as described previously (Sun et al., 2012). Specific pathogen free (SPF) housed Wt, II10^−/− and Pi3kγ^−/− (Sasaki et al., 2000) mice all on a 129/SvEv background were gavaged 10^9 C. jejuni cfu/mouse one day after 7 day treatment with antibiotics cocktail (streptomycin 2 g/L, gentamycin 0.5 g/L, bacteriocin 1 g/L and ciprofloxacin 0.125 g/L) (Sun et al., 2012). […] Histological images were acquired using a DP71 camera and DP Controller 3.1.1.276 (Olympus, Center Valley, Pa., United States of America), and intestinal inflammation was scored on a scale of 0 to 4 as described before (Lippert et al., 2009; Sun et al., 2012). Neutrophils in colonic tissues were identified based on morphological features using H&E stained sections and counted in 5 fields of view/mouse using a microscope. Data were expressed as average counts/mouse.

The test system of the next assay is AKT (S473). Nature of the assay: Western blot of AKT phosphorylation in colonic lysates of C. jejuni infected mice. Conditions: AS252424 10 mg/kg i.p. daily, 6 days. Here is the method:
A segment of the distal colon was lysed in 300 μl Laemmli buffer, homogenized and heated at 95° C. for 5 min. 20 μg of total protein were separated by SDS-PAGE and transferred to nitrocellulose membranes. Targeted protein was detected using enhanced chemiluminescence reaction (ECL) as described previously (Muhlbauer et al., 2008). Primary antibodies used were phosphor-AKT (S473), phosphor-p70S6K (T389), total AKT (all from Cell Signaling, Danvers, Mass., United States of America) and EGFP (Sigma, St. Louis, Mo., United States of America). The density of Western blot bands was quantified using ImageJ and data were normalized to total AKT control.
For orientation: In western blotting, separated proteins are transferred to a membrane and probed.

Consider `O=C1NC(=O)/C(=C/c2ccc(-c3ccc(F)cc3O)o2)S1` [AS252424], for which the “induction of EGFP expression (NF-κB activity) in the colon” value in the assay with NF-κB was “reduced”. The “reduction of C. jejuni-induced crypt abscesses” value in the assay with C. jejuni came out at 95%. Besides, the “AKT phosphorylation (S473) in colonic extracts” value in the assay on AKT (S473) is “modest reduction”.
